Test results as given in patent US10960020B2, “Modulation of PCSK9 and LDLR through DRP1 inhibition” (THE BRIGHAM AND WOMEN'S HOSPITAL, INC., priority 2016, dated 2021).

System: PCSK9 secretion in HepG2 cells
Test: Secreted PCSK9 ELISA, HepG2 media
Format: cell-based, human
Conditions: HepG2, 24 hours; chloroquine 50 μmol/L, Mdivi-1 50 μmol/L, MG132 0.3 μmol/L
Protocol: Pitavastatin and T0901317 were synthesized and provided by Kowa Company, Ltd. (Tokyo, Japan), and treated at a dose of 1 μM in all experiments. […] Mdivi-1 in DMSO vehicle was added at a concentration of 50 μM in all experiments. Mdivi-1 in DMSO vehicle was added to cell culture media in a 50 mL tube, vortexed hard for several minutes and then incubated at 37° C. prior to adding to cells to ensure the compound was fully solubilized.
HepG2 cells were obtained from ATCC (Manassas, Va.), and cultured in EMEM with L-glutamine (ATCC) medium, 1% pen/strep, with and without 10% FBS (Thermo Fisher Scientific, Waltham, Mass.) in 12-well plates (Corning, Durham, N.C.). HepG2 cells were plated at a density of 60-70% prior to treatment to avoid clumping. […] Cell viability was assessed by Trypan Blue exclusion using live/dead cell counting on a Countess™ II LT automated cell counter (Thermo Fisher Scientific).

Compound: CCN(CC)CCCC(C)Nc1ccnc2cc(Cl)ccc12 (stereo not shown) [chloroquine]
- PCSK9 secretion by ELISA (in words): increased
